# Patent US7582610B2, “Melanocortin receptor templates, peptides and use thereof” (priority 2003, dated 2009)
# Where a SMILES comes first, the peptide text is derived from it. Bridges are numbered along the chain shown (N, C = ends). [ ]: non-standard residue; d: D form. Nle = CCCC[C@H](N)C(=O)O; Dap = NC[C@H](N)C(=O)O
# Assays:
# mMC4R = mMC4R (Mus musculus, UniProt P56450); test: Functional bioassay, CRE/β-galactosidase reporter in HEK-293 cells stably expressing mMC4R; details: for pharmacology in words at mMC4R: slight agonist = some stimulatory response at 100 μM, not enough to determine an EC50
# Description: (§1) 5,000 to 15,000 post transfection cells were plated into 96 well Primera plates (Falcon) and incubated overnight. […] The assay media was aspirated and 50 μL of lysis buffer (250 mM Tris-HCl pH=8.0 and 0.1% Triton X-100) was added. The plates were stored at −80° overnight.
# (§2) The plates containing the cell lysates were thawed the following day. Aliquots of 10 μL were taken from each well and transferred to another 96-well plate for relative protein determination. To the cell lysate plates, 40 μL phosphate-buffered saline with 0.5% BSA was added to each well. Subsequently, 150 μL substrate buffer (60 mM sodium phosphate, 1 mM MgCl2, 10 mM KCl, 5 mM β-mercaptoethanol, 200 mg/100 mL ONPG) was added to each well and the plates were incubated at 37°.
# (§3) The sample absorbance, OD405, was measured using a 96 well plate reader (Molecular Devices). The relative protein was determined by adding 200 μL 1:5 dilution Bio Rad G250 protein dye:water to the 10 μL cell lysate sample taken previously, and the OD595 was measured on a 96 well plate reader (Molecular Devices). Data points were normalized both to the relative protein content and non-receptor dependent forskolin stimulation.
# (§4) For data analysis, EC50 and pA2 values represent the mean of duplicate experiments performed in triplet, quadruplet or more independent experiments.
# mMC5R = mMC5R (Mus musculus, UniProt P41149); test: Functional bioassay, CRE/β-galactosidase reporter in HEK-293 cells stably expressing mMC5R; details: for pharmacology in words at mMC5R: slight agonist = some stimulatory response at 100 μM, not enough to determine an EC50
# Description: as §1, §2, §3, §4
# mMC1R = mMC1R (Mus musculus, UniProt Q01727); test: Functional bioassay, CRE/β-galactosidase reporter in HEK-293 cells stably expressing mMC1R
# Description: as §1, §2, §3, §4
# mMC3R = mMC3R (Mus musculus, UniProt P33033); test: Functional bioassay, CRE/β-galactosidase reporter in HEK-293 cells stably expressing mMC3R; details: for pharmacology in words at mMC3R: slight agonist = some stimulatory response at 100 μM, not enough to determine an EC50
# Sequence of mMC3R (P33033 whole entry): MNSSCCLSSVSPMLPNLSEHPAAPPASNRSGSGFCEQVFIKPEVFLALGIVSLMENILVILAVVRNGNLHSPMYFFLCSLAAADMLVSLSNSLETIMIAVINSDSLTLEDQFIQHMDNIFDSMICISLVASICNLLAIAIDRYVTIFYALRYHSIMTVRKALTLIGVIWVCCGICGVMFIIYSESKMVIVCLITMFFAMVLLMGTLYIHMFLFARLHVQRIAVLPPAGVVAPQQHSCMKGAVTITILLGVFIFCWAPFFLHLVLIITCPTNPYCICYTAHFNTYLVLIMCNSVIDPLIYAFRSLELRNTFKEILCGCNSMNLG
# Description: as §1, §2, §3, §4
# Sequence of mMC4R (P56450 whole entry): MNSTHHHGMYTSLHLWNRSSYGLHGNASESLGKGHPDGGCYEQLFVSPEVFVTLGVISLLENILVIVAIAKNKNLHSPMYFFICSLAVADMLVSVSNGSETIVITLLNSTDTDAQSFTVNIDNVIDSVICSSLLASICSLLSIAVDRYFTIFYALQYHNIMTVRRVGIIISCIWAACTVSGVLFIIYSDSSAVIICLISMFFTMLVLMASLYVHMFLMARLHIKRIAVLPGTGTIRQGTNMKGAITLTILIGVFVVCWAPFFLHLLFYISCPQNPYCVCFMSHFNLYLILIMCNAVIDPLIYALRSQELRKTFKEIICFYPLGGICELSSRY
# Sequence of mMC5R (P41149 whole entry): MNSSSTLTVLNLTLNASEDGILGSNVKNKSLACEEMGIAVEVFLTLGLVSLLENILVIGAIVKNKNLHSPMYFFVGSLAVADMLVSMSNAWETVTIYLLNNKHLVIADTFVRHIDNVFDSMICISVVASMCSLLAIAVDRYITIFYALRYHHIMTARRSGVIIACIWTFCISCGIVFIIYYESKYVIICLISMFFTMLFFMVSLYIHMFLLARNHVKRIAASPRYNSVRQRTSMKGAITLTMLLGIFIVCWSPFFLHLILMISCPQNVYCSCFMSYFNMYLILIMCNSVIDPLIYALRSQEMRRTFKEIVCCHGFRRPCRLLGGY
# Sequence of mMC1R (Q01727 whole entry): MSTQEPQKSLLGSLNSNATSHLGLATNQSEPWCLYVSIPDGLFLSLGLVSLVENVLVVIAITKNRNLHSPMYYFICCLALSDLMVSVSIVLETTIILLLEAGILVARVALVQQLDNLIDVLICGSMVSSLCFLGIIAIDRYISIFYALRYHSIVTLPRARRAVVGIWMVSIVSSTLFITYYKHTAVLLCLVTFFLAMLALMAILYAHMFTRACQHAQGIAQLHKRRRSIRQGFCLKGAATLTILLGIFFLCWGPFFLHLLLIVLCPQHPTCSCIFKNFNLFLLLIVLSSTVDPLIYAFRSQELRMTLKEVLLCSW
smiles,measurement,setting,value
CCCC[C@H](NC(=O)[C@H](CO)NC(=O)[C@H](Cc1ccc(O)cc1)NC(=O)[C@H](CO)NC(C)=O)C(=O)N[C@@H](CCC(=O)O)C(=O)N[C@@H](Cc1ccccc1)C(=O)N[C@@H](Cc1ccccc1)C(=O)N[C@@H](CCCNC(=N)N)C(=O)NCC(=O)N[C@@H](CCCCN)C(=O)N1CCC[C@H]1C(=O)N[C@H](C(N)=O)C(C)C [SEQ ID NO: 13] (Ac-SYS[Nle]EFFRGKPV-NH2),EC50,mMC4R,> 100000 nM
same,EC50,mMC5R,> 100000 nM
same,pharmacology in words at mMC1R,"mMC1R; slight agonist = some stimulatory response at 100 μM, not enough to determine an EC50",Partial agonist
same,EC50,mMC3R,> 100000 nM
"C[C@@H]1NC(=O)[C@H](CC(N)=O)NC(=O)[C@H](Cc2ccccc2)NC(=O)[C@H](Cc2ccccc2)NC(=O)[C@H](CCCNC(=N)N)NC(=O)[C@@H](NC(=O)[C@@H](N)Cc2ccc(O)cc2)CC(=O)NC[C@@H](C(=O)N[C@@H](Cc2ccc(O)cc2)C(N)=O)NC(=O)[C@H](Cc2ccccc2)NC1=O [SEQ ID NO: 3, Tyr-c[Asp-Arg-Phe-Phe-Asn-Ala-Phe-Dpr]-Tyr]",Kb,mMC4R,1260 nM
same,decrease in antagonist potency at mMC4R,mMC4R; compared with hAGRP(109-118),8 fold
same,EC50,mMC5R,> 100000 nM
same,Kb,mMC3R,2000 nM
"C[C@@H]1NC(=O)[C@H](CC(N)=O)NC(=O)[C@@H](Cc2ccccc2)NC(=O)[C@H](Cc2ccccc2)NC(=O)[C@H](CCCNC(=N)N)NC(=O)[C@@H](NC(=O)[C@@H](N)Cc2ccc(O)cc2)CSSC[C@@H](C(=O)N[C@@H](Cc2ccc(O)cc2)C(N)=O)NC(=O)[C@H](Cc2ccccc2)NC1=O [SEQ ID NO: 1, Tyr-c[Cys-Arg-Phe-DPhe-Asn-Ala-Phe-Cys]-Tyr] (H-YCRF[dF]NAFCY-NH2; disulfide 2-9)",Kb,mMC4R,794 nM
same,pharmacology in words at mMC4R,mMC4R,Partial agonist
same,EC50,mMC3R,> 100000 nM
same,pharmacology in words at mMC3R,mMC3R,Slight Agonist
"C[C@@H]1NC(=O)[C@H](CC(N)=O)NC(=O)[C@H](Cc2c[nH]c3ccccc23)NC(=O)[C@H](CCCNC(=N)N)NC(=O)[C@@H](Cc2ccccc2)NC(=O)[C@@H]2CCCN2C(=O)[C@@H](NC(=O)[C@@H](N)Cc2ccc(O)cc2)CC(=O)NC[C@@H](C(=O)N[C@@H](Cc2ccc(O)cc2)C(N)=O)NC(=O)[C@H](Cc2ccccc2)NC1=O [SEQ ID NO: 28, Tyr-c[Asp-Pro-DPhe-Arg-Trp-Asn-Ala-Phe-Dpr]-Tyr] (H-YDP[dF]RWNAF[Dap]Y-NH2; lactam 2-10)",Kb,mMC3R,63.1 nM
same,pharmacology in words at mMC3R,mMC3R,Partial agonist
"C[C@@H]1NC(=O)[C@H](C)NC(=O)[C@@H](NC(=O)[C@@H](N)Cc2ccc(O)cc2)CC(=O)NC[C@@H](C(=O)N[C@@H](Cc2ccc(O)cc2)C(N)=O)NC(=O)[C@H](Cc2ccccc2)NC(=O)[C@H](C)NC(=O)[C@H](CC(N)=O)NC(=O)[C@H](C)NC1=O [SEQ ID NO: 2, Tyr-c[Asp-Ala-Ala-Ala-Asn-Ala-Phe-Dpr]-Tyr] (H-YDAAANAF[Dap]Y-NH2; lactam 2-9)",EC50,mMC4R,> 100000 nM
same,EC50,mMC5R,> 100000 nM
same,EC50,mMC1R,> 100000 nM
same,EC50,mMC3R,> 100000 nM
"C[C@@H]1NC(=O)[C@H](CC(N)=O)NC(=O)[C@H](Cc2c[nH]c3ccccc23)NC(=O)[C@H](CCCNC(=N)N)NC(=O)[C@@H](Cc2ccccc2)NC(=O)[C@H](Cc2ccccc2)NC(=O)[C@@H](NC(=O)[C@@H](N)Cc2ccc(O)cc2)CC(=O)NC[C@@H](C(=O)N[C@@H](Cc2ccc(O)cc2)C(N)=O)NC(=O)[C@H](Cc2ccccc2)NC1=O [SEQ ID NO: 29, Tyr-c[Asp-Phe-DPhe-Arg-Trp-Asn-Ala-Phe-Dpr]-Tyr] (H-YDF[dF]RWNAF[Dap]Y-NH2; lactam 2-10)",Kb,mMC3R,63.1 nM
same,pharmacology in words at mMC3R,mMC3R,Partial agonist
"C[C@@H]1NC(=O)[C@H](CC(N)=O)NC(=O)[C@H](Cc2ccccc2)NC(=O)[C@H](CCCNC(=N)N)NC(=O)[C@H](Cc2c[nH]c3ccccc23)NC(=O)[C@@H](NC(=O)[C@@H](N)Cc2ccc(O)cc2)CC(=O)NC[C@@H](C(=O)N[C@@H](Cc2ccc(O)cc2)C(N)=O)NC(=O)[C@H](Cc2ccccc2)NC1=O [SEQ ID NO: 4, Tyr-c[Asp-Trp-Arg-Phe-Asn-AIa-Phe-Dpr]-Tyr] (H-YDWRFNAF[Dap]Y-NH2; lactam 2-9)",pharmacology in words at mMC4R,mMC4R,Partial agonist
same,EC50,mMC5R,> 100000 nM
same,EC50,mMC3R,> 100000 nM
"C[C@@H]1NC(=O)[C@H](CC(N)=O)NC(=O)[C@H](Cc2c[nH]c3ccccc23)NC(=O)[C@H](CCCNC(=N)N)NC(=O)[C@@H](Cc2cccc3ccccc23)NC(=O)[C@H](Cc2c[nH]cn2)NC(=O)[C@@H](NC(=O)[C@@H](N)Cc2ccc(O)cc2)CC(=O)NC[C@@H](C(=O)N[C@@H](Cc2ccc(O)cc2)C(N)=O)NC(=O)[C@H](Cc2ccccc2)NC1=O [SEQ ID NO: 34, Tyr-c[Asp-His-DNal(1′)-Arg-Trp-Asn-Ala-Phe-Dpr]-Tyr]",EC50,mMC4R,0.57 ± 0.08 nM
"C[C@@H]1NC(=O)[C@H](CC(N)=O)NC(=O)[C@H](Cc2c[nH]c3ccccc23)NC(=O)[C@H](CCCNC(=N)N)NC(=O)[C@@H](Cc2ccc(-c3ccccc3)cc2)NC(=O)[C@H](Cc2c[nH]cn2)NC(=O)[C@@H](NC(=O)[C@@H](N)Cc2ccc(O)cc2)CC(=O)NC[C@@H](C(=O)N[C@@H](Cc2ccc(O)cc2)C(N)=O)NC(=O)[C@H](Cc2ccccc2)NC1=O [SEQ ID NO: 35, Tyr-c[Asp-His-DBip-Arg-Trp-Asn-Ala-Phe-Dpr]-Tyr]",EC50,mMC4R,0.57 ± 0.07 nM
C[C@@H]1NC(=O)[C@H](CC(N)=O)NC(=O)[C@H](Cc2c[nH]c3ccccc23)NC(=O)[C@H](CCCNC(=N)N)NC(=O)[C@H](C)NC(=O)[C@H](Cc2c[nH]cn2)NC(=O)[C@@H](NC(=O)[C@@H](N)Cc2ccc(O)cc2)CC(=O)NC[C@@H](C(=O)N[C@@H](Cc2ccc(O)cc2)C(N)=O)NC(=O)[C@H](Cc2ccccc2)NC1=O [SEQ ID NO: 25],pharmacology in words at mMC3R,mMC3R,Partial agonist
"C[C@@H]1NC(=O)[C@H](CC(N)=O)NC(=O)[C@H](Cc2c[nH]c3ccccc23)NC(=O)[C@H](CCCNC(=N)N)NC(=O)[C@H](Cc2ccccc2)NC(=O)[C@@H](NC(=O)[C@@H](N)Cc2ccc(O)cc2)CC(=O)NC[C@@H](C(=O)N[C@@H](Cc2ccc(O)cc2)C(N)=O)NC(=O)[C@H](Cc2ccccc2)NC1=O [SEQ ID NO: 6, Tyr-c[Asp-Phe-Arg-Trp-Asn-Ala-Phe-Dpr]-Tyr] (H-YDFRWNAF[Dap]Y-NH2; lactam 2-9)",pharmacology in words at mMC3R,mMC3R,Slight agonist
"CCCC[C@H](NC(=O)[C@H](CO)NC(=O)[C@H](Cc1ccc(O)cc1)NC(=O)[C@H](CO)NC(C)=O)C(=O)N[C@@H](CCC(=O)O)C(=O)N[C@@H](Cc1c[nH]cn1)C(=O)N[C@@H](CCCNC(=N)N)C(=O)N[C@@H](Cc1ccccc1)C(=O)N[C@H](Cc1ccccc1)C(=O)NCC(=O)N[C@@H](CCCCN)C(=O)N1CCC[C@H]1C(=O)N[C@H](C(N)=O)C(C)C [SEQ ID NO: 18, Ac-Ser-Tyr-Ser-Nle-Glu-His-Arg-Phe-DPhe-Gly-Lys-Pro-Val] (Ac-SYS[Nle]EHRF[dF]GKPV-NH2)",EC50,mMC4R,> 100000 nM
same,pharmacology in words at mMC5R,mMC5R,Slight agonist
same,EC50,mMC3R,> 100000 nM
"C[C@@H]1NC(=O)[C@H](CC(N)=O)NC(=O)[C@H](Cc2c[nH]c3ccccc23)NC(=O)[C@H](CCCNC(=N)N)NC(=O)[C@@H](Cc2ccc(I)cc2)NC(=O)[C@H](Cc2c[nH]cn2)NC(=O)[C@@H](NC(=O)[C@@H](N)Cc2ccc(O)cc2)CC(=O)NC[C@@H](C(=O)N[C@@H](Cc2ccc(O)cc2)C(N)=O)NC(=O)[C@H](Cc2ccccc2)NC1=O [SEQ ID NO: 32, Tyr-c[Asp-His-(pI)DPhe-Arg-Trp-Asn-Ala-Phe-Dpr]-Tyr]",Kb,mMC4R,0.398 nM
same,pharmacology in words at mMC4R,mMC4R,Partial agonist
same,Kb,mMC3R,1.26 nM
"C[C@@H]1NC(=O)[C@H](CC(N)=O)NC(=O)[C@H](Cc2c[nH]c3ccccc23)NC(=O)[C@H](CCCNC(=N)N)NC(=O)[C@@H](Cc2ccc3ccccc3c2)NC(=O)[C@H](Cc2c[nH]cn2)NC(=O)[C@@H](NC(=O)[C@@H](N)Cc2ccc(O)cc2)CC(=O)NC[C@@H](C(=O)N[C@@H](Cc2ccc(O)cc2)C(N)=O)NC(=O)[C@H](Cc2ccccc2)NC1=O [SEQ ID NO: 33, Tyr-c[Asp-His-DNal(2′)-Arg-Trp-Asn-Ala-Phe-Dpr]-Tyr]",Kb,mMC4R,0.501 nM
same,pharmacology in words at mMC4R,mMC4R,Partial agonist
same,Kb,mMC3R,5.01 nM
"CCCC[C@H](NC(=O)[C@H](CO)NC(=O)[C@H](Cc1ccc(O)cc1)NC(=O)[C@H](CO)NC(C)=O)C(=O)N[C@@H](Cc1ccc(O)cc1)C(=O)N[C@H]1CC(=O)NC[C@@H](C(=O)N[C@@H](Cc2ccc(O)cc2)C(=O)N[C@@H](CCCCN)C(=O)N2CCC[C@H]2C(=O)N[C@H](C(N)=O)C(C)C)NC(=O)[C@H](Cc2ccccc2)NC(=O)[C@H](C)NC(=O)[C@H](CC(N)=O)NC(=O)[C@H](Cc2ccccc2)NC(=O)[C@H](Cc2ccccc2)NC(=O)[C@H](CCCNC(=N)N)NC1=O [SEQ ID NO: 11, Ac-Ser-Tyr-Ser-Nle-Tyr-c[Asp-Arg-Phe-Phe-Asn-Ala-Phe-Dpr]-Tyr-Lys-Pro-Val] (Ac-SYS[Nle]YDRFFNAF[Dap]YKPV-NH2; lactam 6-13)",Kb,mMC4R,631 nM
same,EC50,mMC5R,> 100000 nM
same,Kb,mMC3R,631 nM
"CCCC[C@H](NC(C)=O)C(=O)N[C@H]1CC(=O)NCCCC[C@@H](C(N)=O)NC(=O)[C@@H](Cc2ccccc2)NC(=O)[C@H](Cc2ccccc2)NC(=O)[C@H](CCCNC(=N)N)NC(=O)[C@H](Cc2c[nH]cn2)NC1=O [SEQ ID NO: 23, Ac-Nle-c[Asp-His-Arg-Phe-DPhe-Lys]] (Ac-[Nle]DHRF[dF]K-NH2; lactam 2-7)",EC50,mMC4R,> 100000 nM
same,pharmacology in words at mMC5R,mMC5R,Slight agonist
same,pharmacology in words at mMC3R,mMC3R,Slight agonist
"C[C@@H]1NC(=O)[C@H](CC(N)=O)NC(=O)[C@@H](Cc2ccccc2)NC(=O)[C@H](CCCNC(=N)N)NC(=O)[C@H](Cc2c[nH]c3ccccc23)NC(=O)[C@@H](NC(=O)[C@@H](N)Cc2ccc(O)cc2)CC(=O)NC[C@@H](C(=O)N[C@@H](Cc2ccc(O)cc2)C(N)=O)NC(=O)[C@H](Cc2ccccc2)NC1=O [SEQ ID NO: 5, Tyr-c[Asp-Trp-Arg-DPhe-Asn-Ala-Phe-Dpr]-Tyr] (H-YDWR[dF]NAF[Dap]Y-NH2; lactam 2-9)",pharmacology in words at mMC3R,mMC3R,Slight Agonist
